The nature of data set [1]: Therapeutic index, ratio of CC50 for rat RBL2H3 cells to IC50 for Antiallergic activity against anti-DNP-IgE sensitized rat RBL-2H3 cells. In kind it is toxicity. To be noted: read-out: TI.
Data set [2] concerns the target Macrophage colony-stimulating factor 1 receptor (Homo sapiens, UniProt P07333). The data set can be described thus: Inhibition of human recombinant CSF1R using ATP/Ulight-TK peptide incubated for 15 mins.
For data set [3], the target named is Mast/stem cell growth factor receptor Kit (Homo sapiens) (UniProt P10721). The data set can be described thus: Inhibition of human recombinant c-Kit at 5 nM by radiometric scintillation counting analysis relative to control.
Data set [4] has as its target Tyrosine-protein kinase SYK (Homo sapiens) (UniProt P43405). The data set can be described thus: Inhibition of human full length recombinant Syk at 5 nM by radiometric scintillation counting analysis relative to control.
Data set [5] has as its target T1, Cytoplasmic tyrosine-protein kinase BMX (Homo sapiens) (UniProt P51813).
T1 sequence (whole entry): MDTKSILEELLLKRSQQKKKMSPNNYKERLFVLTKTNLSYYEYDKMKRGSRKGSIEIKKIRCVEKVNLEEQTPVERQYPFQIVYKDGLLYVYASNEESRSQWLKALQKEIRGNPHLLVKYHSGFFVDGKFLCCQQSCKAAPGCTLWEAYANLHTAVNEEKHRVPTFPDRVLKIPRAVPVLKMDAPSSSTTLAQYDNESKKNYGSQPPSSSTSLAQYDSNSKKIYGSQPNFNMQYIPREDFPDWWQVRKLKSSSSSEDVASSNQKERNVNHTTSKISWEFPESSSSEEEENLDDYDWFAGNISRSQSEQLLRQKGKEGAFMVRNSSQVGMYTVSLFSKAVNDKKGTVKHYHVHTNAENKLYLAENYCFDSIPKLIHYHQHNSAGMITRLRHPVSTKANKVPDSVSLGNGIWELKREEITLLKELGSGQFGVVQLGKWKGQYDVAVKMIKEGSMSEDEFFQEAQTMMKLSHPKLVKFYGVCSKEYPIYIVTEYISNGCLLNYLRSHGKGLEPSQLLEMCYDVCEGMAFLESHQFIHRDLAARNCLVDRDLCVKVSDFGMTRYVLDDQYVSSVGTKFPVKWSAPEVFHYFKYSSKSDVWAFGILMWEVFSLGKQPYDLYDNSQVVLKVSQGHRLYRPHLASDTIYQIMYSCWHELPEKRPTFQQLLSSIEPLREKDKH
The data set can be described thus: Inhibition of human full length recombinant Bmx at 50 nM by radiometric scintillation counting analysis relative to control.

For data set [6], the target named is Tyrosine-protein kinase BTK (Homo sapiens) (UniProt Q06187). The data set can be described thus: Inhibition of human full length recombinant BTK at 50 nM by radiometric scintillation counting analysis relative to control.
In data set [7] the target is T2, Tyrosine-protein kinase Tec (Homo sapiens) (UniProt P42680).
T2 sequence (whole entry): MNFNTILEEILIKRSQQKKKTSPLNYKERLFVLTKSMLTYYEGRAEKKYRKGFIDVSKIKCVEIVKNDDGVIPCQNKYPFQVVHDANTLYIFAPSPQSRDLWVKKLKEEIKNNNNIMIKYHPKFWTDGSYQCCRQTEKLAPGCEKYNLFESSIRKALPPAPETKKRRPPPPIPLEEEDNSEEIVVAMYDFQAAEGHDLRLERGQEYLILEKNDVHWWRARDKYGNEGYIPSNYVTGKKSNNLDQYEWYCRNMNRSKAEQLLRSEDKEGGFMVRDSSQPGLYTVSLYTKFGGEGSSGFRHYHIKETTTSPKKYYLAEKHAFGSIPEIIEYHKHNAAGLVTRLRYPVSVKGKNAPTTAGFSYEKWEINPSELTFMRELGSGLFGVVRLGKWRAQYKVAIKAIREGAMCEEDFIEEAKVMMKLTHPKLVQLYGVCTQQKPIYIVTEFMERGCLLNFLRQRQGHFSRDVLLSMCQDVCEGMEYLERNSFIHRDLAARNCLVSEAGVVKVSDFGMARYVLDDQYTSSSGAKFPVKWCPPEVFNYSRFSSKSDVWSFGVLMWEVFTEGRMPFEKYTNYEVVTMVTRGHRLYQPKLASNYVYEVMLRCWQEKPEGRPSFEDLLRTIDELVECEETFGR
The data set can be described thus: Inhibition of human recombinant Tec (174 to end) at 50 nM by radiometric scintillation counting analysis relative to control.

In data set [8] the target is Tyrosine-protein kinase Fgr (Homo sapiens, UniProt P09769). The data set can be described thus: Inhibition of human recombinant FGR (456 to 770) radiometric scintillation counting analysis.
The target in data set [9] is Tyrosine-protein kinase Lyn (Homo sapiens, UniProt P07948). The data set can be described thus: Inhibition of human full length recombinant LYN by radiometric scintillation counting analysis.
Data set [10] addresses TXK (Homo sapiens, UniProt P42681). The data set can be described thus: Inhibition of human recombinant Txk (256 to end) by radiometric scintillation counting analysis.
The target in data set [11] is RAC-alpha serine/threonine-protein kinase (Homo sapiens) (UniProt P31749). The experiment in a line: Inhibition of human recombinant PKBalpha at 5 nM radiometric scintillation counting analysis relative to control.
Data set [12] has as its target Tyrosine-protein kinase SYK (Rattus norvegicus) (UniProt Q64725). The experiment in a line: Inhibition of Syk phosphorylation in rat RBL-2H3 cells assessed as inhibition of Fc epsilonRI-mediated signal transduction by Western blot analysis. In kind it is cell-based. To be noted: dose 8-200 nM.
Data set [13] has as its target 1-phosphatidylinositol 4,5-bisphosphate phosphodiesterase gamma-1 (Rattus norvegicus) (UniProt P10686). The experiment in a line: Inhibition of PLCgamma1 phosphorylation in rat RBL-2H3 cells assessed as inhibition of Fc epsilonRI-mediated signal transduction by Western blot analysis. The class given is cell-based. The conditions noted are these: dose 8-200 nM.
The subject of data set [14] is RBL-2H3. The experiment in a line: Inhibition of p38 MAPK phosphorylation in rat RBL-2H3 cells assessed as inhibition of Fc epsilonRI-mediated signal transduction by Western blot analysis. The class given is cell-based. To be noted: dose 8-200 nM.
Data set [15] can be described thus: Cmax in BALB/c mouse at 20 mg/kg, po measured up to 24 hrs by LC-MS/MS analysis. The conditions noted are these: in vivo. The class given is ADME, organism-based. More on the design: route oral, dose 20 mg/kg, time <=24.
Data set [16] can be described thus: Clearance in BALB/c mouse at 2 mg/kg, iv measured up to 24 hrs by LC-MS/MS analysis. In kind it is ADME, organism-based. To be noted: in vivo.
The nature of data set [17]: MRT in BALB/c mouse at 20 mg/kg, po measured up to 24 hrs by LC-MS/MS analysis. The class given is ADME, organism-based. To be noted: in vivo.
The nature of data set [18]: Oral bioavailability in BALB/c mouse at 20 mg/kg measured up to 24 hrs by LC-MS/MS analysis. The class given is ADME, organism-based. The conditions noted are these: in vivo.
A short description of data set [19]: AUC (0 to t) in BALB/c mouse at 2 mg/kg, iv measured up to 24 hrs by LC-MS/MS analysis. In kind it is ADME, organism-based. Further details: route intravenous, dose 2 mg/kg, time <=24. The conditions noted are these: in vivo.
Data set [20] in a line: Toxicity in anti-DNP IgE sensitized BALB/c mouse assessed as diarrhea at 40 mg/kg, po. In kind it is organism-based. The conditions noted are these: in vivo.
Data set [21] in a line: Toxicity in anti-DNP IgE sensitized BALB/c mouse assessed as death at 40 mg/kg, po. In kind it is organism-based. The conditions noted are these: in vivo.
Data set [22] is described as follows: Toxicity in anti-DNP IgE sensitized BALB/c mouse assessed as ascites at 40 mg/kg, po. The class given is organism-based. The conditions noted are these: in vivo.
Data set [23] is described as follows: Toxicity in anti-DNP IgE sensitized BALB/c mouse assessed as hepatopathy at 40 mg/kg, po. The class given is organism-based. The conditions noted are these: in vivo.
A short description of data set [24]: Toxicity in anti-DNP IgE sensitized BALB/c mouse assessed as splenomegaly at 40 mg/kg, po. In kind it is organism-based. To be noted: in vivo.

Consider three compounds from ChEMBL document CHEMBL4837249, “Discovery of Potent Antiallergic Agents Based on an o-Aminopyridinyl Alkynyl Scaffold” (J Med Chem, 2021).

Sequence of Tyrosine-protein kinase Fgr (P09769 whole entry): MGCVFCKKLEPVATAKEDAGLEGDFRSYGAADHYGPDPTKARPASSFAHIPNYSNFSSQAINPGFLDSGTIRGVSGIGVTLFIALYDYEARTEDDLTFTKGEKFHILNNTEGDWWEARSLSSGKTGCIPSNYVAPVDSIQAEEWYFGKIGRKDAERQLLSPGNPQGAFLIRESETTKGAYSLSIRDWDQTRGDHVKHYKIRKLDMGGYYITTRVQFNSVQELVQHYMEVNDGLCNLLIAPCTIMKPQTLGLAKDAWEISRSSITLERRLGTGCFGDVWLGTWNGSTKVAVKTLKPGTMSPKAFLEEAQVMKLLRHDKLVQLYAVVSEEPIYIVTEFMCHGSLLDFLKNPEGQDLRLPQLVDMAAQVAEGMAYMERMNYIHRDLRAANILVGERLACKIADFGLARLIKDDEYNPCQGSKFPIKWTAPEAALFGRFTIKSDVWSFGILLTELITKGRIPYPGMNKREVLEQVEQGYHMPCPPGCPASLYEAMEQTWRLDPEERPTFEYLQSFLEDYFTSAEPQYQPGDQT
Sequence of Tyrosine-protein kinase Lyn (P07948 whole entry): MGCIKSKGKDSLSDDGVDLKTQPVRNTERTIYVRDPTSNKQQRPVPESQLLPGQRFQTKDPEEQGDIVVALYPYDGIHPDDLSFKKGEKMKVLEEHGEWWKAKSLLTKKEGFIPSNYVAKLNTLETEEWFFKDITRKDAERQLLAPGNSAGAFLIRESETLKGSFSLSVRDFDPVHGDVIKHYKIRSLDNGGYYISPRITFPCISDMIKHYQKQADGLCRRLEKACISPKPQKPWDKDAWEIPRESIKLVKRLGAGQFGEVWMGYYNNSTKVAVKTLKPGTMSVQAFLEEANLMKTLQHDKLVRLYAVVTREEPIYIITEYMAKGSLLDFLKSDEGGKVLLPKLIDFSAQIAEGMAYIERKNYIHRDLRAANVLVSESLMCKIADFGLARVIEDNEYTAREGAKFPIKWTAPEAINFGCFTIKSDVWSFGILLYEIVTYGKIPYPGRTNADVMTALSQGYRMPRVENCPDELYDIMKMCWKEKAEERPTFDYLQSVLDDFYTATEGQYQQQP
Sequence of TXK (P42681 whole entry, looked up): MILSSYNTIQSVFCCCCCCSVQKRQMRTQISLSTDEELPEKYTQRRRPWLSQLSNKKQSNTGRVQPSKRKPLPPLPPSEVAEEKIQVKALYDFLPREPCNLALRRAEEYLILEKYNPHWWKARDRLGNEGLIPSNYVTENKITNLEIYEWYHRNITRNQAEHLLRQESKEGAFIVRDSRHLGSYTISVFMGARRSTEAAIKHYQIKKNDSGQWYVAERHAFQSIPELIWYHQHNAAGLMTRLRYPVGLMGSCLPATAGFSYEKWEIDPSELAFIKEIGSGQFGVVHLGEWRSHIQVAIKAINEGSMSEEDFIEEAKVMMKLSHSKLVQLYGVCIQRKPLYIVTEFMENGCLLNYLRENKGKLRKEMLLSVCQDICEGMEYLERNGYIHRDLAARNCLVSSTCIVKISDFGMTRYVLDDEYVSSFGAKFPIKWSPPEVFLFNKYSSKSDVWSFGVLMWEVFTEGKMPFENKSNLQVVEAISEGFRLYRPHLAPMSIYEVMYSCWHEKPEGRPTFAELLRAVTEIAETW
Sequence of Macrophage colony-stimulating factor 1 receptor (P07333 whole entry): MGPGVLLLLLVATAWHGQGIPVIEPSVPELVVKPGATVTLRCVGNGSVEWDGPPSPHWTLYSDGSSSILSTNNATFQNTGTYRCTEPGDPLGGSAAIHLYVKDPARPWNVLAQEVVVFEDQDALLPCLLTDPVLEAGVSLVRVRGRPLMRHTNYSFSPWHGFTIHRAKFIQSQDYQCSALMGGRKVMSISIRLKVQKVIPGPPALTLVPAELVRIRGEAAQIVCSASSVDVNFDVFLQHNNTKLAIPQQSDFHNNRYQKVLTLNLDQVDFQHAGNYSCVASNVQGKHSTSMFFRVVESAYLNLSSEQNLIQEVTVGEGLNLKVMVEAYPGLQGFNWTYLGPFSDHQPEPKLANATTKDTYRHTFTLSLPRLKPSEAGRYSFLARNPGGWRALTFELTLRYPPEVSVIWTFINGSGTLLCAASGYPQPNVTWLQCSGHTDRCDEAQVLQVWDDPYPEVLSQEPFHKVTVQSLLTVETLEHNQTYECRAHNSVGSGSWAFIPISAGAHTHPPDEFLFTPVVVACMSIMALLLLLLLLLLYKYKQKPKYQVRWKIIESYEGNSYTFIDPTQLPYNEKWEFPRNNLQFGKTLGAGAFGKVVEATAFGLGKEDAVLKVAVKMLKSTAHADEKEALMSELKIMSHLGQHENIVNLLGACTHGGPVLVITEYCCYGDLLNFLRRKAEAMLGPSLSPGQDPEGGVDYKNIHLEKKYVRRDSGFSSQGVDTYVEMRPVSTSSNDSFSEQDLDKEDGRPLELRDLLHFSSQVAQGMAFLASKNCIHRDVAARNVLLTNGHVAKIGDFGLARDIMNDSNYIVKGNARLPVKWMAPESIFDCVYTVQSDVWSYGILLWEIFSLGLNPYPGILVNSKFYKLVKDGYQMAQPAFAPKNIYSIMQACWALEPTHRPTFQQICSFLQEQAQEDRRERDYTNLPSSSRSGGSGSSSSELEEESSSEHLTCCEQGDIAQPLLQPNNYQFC
Sequence of RAC-alpha serine/threonine-protein kinase (Homo sapiens) (P31749 whole entry): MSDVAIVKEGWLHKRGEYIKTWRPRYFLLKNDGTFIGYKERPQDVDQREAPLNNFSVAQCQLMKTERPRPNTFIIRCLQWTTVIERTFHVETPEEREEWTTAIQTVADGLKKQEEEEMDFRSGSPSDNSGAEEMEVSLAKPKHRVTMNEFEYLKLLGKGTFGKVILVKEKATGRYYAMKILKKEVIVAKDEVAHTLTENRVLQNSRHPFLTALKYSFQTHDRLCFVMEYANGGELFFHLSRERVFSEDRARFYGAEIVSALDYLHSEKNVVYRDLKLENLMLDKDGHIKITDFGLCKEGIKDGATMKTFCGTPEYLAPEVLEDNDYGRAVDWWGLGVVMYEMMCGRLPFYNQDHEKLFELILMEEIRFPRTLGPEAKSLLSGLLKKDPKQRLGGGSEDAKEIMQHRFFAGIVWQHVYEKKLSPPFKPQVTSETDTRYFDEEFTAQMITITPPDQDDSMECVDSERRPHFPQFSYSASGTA
Sequence of Tyrosine-protein kinase BTK (Homo sapiens) (Q06187 whole entry): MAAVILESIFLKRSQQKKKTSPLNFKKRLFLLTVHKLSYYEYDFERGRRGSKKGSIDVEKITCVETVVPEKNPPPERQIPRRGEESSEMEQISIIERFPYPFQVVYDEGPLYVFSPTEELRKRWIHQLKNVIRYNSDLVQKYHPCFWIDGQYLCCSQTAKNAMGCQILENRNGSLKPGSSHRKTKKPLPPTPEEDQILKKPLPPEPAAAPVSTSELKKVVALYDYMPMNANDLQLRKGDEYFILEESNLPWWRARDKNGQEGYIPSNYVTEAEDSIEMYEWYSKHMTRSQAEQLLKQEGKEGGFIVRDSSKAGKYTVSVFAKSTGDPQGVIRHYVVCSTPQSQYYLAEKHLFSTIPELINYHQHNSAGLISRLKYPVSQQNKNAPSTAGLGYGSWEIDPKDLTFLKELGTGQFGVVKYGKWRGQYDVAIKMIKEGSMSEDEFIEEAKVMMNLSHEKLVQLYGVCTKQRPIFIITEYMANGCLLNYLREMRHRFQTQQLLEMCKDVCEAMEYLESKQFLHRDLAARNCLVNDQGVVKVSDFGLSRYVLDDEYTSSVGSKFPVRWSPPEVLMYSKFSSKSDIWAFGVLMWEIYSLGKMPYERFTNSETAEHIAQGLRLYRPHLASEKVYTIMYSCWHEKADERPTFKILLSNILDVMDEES
Sequence of Mast/stem cell growth factor receptor Kit (Homo sapiens) (P10721 whole entry): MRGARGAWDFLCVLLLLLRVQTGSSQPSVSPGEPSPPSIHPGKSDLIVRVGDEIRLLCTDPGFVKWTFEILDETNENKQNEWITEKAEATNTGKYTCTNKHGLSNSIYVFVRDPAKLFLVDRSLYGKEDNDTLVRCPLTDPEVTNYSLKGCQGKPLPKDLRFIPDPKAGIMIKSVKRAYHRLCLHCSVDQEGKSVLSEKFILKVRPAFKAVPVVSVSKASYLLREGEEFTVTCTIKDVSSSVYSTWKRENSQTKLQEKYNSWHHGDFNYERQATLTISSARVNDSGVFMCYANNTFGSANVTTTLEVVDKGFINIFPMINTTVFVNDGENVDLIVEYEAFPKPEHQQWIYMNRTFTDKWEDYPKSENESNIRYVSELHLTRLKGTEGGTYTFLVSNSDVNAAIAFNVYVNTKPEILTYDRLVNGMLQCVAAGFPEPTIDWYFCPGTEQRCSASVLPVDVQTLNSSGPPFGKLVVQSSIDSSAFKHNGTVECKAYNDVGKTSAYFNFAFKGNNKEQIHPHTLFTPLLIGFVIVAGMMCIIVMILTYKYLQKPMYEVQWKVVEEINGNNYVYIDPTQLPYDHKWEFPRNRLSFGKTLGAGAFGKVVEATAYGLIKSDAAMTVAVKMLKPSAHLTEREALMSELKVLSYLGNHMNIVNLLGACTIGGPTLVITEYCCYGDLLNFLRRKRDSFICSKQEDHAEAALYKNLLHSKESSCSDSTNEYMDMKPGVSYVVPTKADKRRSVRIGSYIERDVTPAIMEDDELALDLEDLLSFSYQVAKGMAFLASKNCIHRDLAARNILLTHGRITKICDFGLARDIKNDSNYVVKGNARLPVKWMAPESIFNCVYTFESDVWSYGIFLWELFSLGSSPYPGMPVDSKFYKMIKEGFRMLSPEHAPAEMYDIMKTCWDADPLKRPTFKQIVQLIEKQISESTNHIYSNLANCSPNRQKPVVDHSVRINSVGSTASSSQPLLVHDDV

As for `Cc1ccc(C(=O)Nc2ccc(OC(F)(F)F)cc2)cc1C#Cc1cc(-c2cnn(C)c2)cnc1N`, the selectivity ratio in data set [1] amounted to 16.3. For the same compound, the 50% inhibitory concentration (IC50) in data set [2] worked out at 0.022 µM. Also, in [3], the inhibition worked out at 13%.

As for `Cc1ccc(C(=O)Nc2ccc(Cl)cc2Cl)cc1C#Cc1cc(-c2cnn(C)c2)cnc1N`, the inhibition in data set [4] is -2%; in data set [5] it was 23%; in [6], 8%; in [7] it was -10%; in data set [11], 4%. Besides, the IC50 in data set [8] is above 1 µM; in data set [9], 0.007 µM; in data set [10], above 1 µM.

For `Cc1ccc(C(=O)Nc2cc(C(F)(F)F)cc(C(F)(F)F)c2)cc1C#Cc1cc(-c2cnn(C)c2)cnc1N`, the selectivity ratio in [1] is 148. Besides, the IC50 came out at 0.048 µM in data set [2], 0.041 µM in [8], 0.009 µM in data set [9] and 0.185 µM in data set [10]. Moreover, the inhibition entry in [12] is “Dose-Dependent Effect”; in data set [13], “Dose-Dependent Effect”; in [14] it was “Dose-Dependent Effect”; in [3], 7%; in data set [5], 24%; in data set [6], 27%. Besides, the inhibition is 10% in data set [7] and -5% in [11]. In data set [15], this compound registered a Cmax of 1940 ng/mL. Besides, the clearance in [16] is 15.2 mL/min/kg. In data set [17], the MRT was 11.2 h. The compound also showed a bioavailability in data set [18] of 99.9%. This compound showed an AUC(0-t) at 24 h in data set [19] of 2130 ng·h/mL. The Activity result in [20], in [21], in [22], in [23] and in [24] was “Non-Toxic” in each case.
